# Laboratory results from patent US10611760B2, “Therapeutic compounds as inhibitors of the orexin-1 receptor” (C4X Discovery Limited, priority 2014, dated 2020).
# How the values were obtained:
# Format in all cases: cell-based
# orexin-1 = molecular target: T1, orexin-1 (Homo sapiens, UniProt O43613); test: Antagonism against orexin-1 in the aforementioned (above identified) intracellular calcium assays
# T1 construct: expressed in transfected cells
# T1 sequence (O43613 1-425): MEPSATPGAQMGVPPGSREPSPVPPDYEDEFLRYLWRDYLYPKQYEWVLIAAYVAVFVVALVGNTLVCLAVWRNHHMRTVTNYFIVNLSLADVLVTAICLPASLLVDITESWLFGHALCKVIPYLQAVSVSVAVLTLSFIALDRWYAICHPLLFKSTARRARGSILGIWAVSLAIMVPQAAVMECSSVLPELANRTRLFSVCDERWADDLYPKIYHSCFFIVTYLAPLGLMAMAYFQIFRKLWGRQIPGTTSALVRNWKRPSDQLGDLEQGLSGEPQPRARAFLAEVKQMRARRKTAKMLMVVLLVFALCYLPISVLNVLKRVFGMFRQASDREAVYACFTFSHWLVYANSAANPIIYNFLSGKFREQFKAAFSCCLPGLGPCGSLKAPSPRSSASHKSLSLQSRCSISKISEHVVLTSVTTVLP
# Source text: Antagonism against orexin receptors has been measured for each example compound using at least one of the following procedures. […] These values may fluctuate depending on the daily cellular assay performance. Fluctuations of this kind are known to those skilled in the art. […] Data highlighted with an asterix (*) is derived from a single experiment, otherwise all data reported is an average of at least two independant replicate experiments. […]
# hOX1R [1] = molecular target: T2, hOX1R (Homo sapiens, UniProt O43613); test: Intracellular calcium measurements using stable-replicating cells, Method A, OX1; settings: orexin-A at 4×EC50, * = single experiment, read-out: pIC50 OX1 (converted)
# T2 sequence (O43613 1-425): T1 sequence (O43613 1-425)
# Procedure: (§1) Intracellular Calcium Measurements Using Stable-replicating Cells:
# (§2) Method A (Table 2): Test compounds are prepared as 10 mM stock solutions in DMSO, warmed briefly for 20 seconds at 37° C. and serially diluted in half log concentrations with DMSO followed by dilution with assay buffer (HBSS (Sigma-Aldrich, H8264) containing 10 mM HEPES (Invitrogen, 15630080) and pH adjusted to 7.4) to a top final assay concentration of 10 μM.
# (§3) Human OX1 (CT-A674) and human OX2 (CT-A675) receptor-expressing stable-replicating cells are grown in a culture medium, Ham F12 (Invitrogen, 31765-035) containing 10% fetal bovine serum (Invitrogen, 16000044), 1% non-essential amino acids (Invitrogen, 11140-050), 100 U/mL Penicillin/Streptomycin (Invitrogen, 15140-122) and G418 (Invitrogen, 11811023) at a concentration of 400 μg/mL. The cells are seeded at a density of 7,000 cells/well into black, clear bottom 384-well plates (Corning, 3683) and incubated at 37° C. in air supplemented with 5% CO2 for 16 hrs.
# (§4) Loading dye (25 μL/well), prepared from a FLIPR Calcium 6 Assay kit (Molecular Devices, R8190-Explorer) according to the manufacturer's instructions, and the serially diluted test compounds (10 μL/well) are added to the plate. The plate is then incubated for 30 mins at 37° C. in 5% CO2, then for 30 mins at ambient temperature and placed into a FlexStation III reader.
# hOX2R [2] = molecular target: T3, hOX2R (Homo sapiens, UniProt O43614); test: Intracellular calcium measurements using stable-replicating cells, Method A, OX2; settings: orexin-A at 4×EC50, * = single experiment, read-out: pIC50 OX2 (converted)
# T3 sequence (O43614 1-444): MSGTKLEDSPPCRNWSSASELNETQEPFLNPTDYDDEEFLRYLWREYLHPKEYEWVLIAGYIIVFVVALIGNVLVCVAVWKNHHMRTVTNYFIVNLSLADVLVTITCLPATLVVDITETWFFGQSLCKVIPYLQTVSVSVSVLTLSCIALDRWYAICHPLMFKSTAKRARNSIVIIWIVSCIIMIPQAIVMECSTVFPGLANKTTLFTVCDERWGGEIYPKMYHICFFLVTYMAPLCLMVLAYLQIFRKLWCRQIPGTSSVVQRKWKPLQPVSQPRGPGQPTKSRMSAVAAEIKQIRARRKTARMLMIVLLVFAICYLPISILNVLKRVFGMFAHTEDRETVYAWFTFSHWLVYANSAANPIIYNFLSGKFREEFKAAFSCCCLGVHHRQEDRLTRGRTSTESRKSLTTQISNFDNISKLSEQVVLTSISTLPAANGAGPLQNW
# Procedure: as §1, §2, §3, §4
# hOX1R [3] = molecular target: T2, hOX1R; test: Intracellular calcium measurements using stable-replicating cells, Method B (CHO cells, FLIPR Tetra), OX1; settings: orexin A at EC75, read-out: pIC50 OX1 (converted)
# Procedure: as §1
# (§5) Human OX1 or human OX2 receptor expressing CHO cells are plated into 384 well black, clear bottom, CellBIND plates at a seeding density of 10,000 cells/75 μL growth media. The seeded plates are incubated at 37° C. in air supplemented with 5% CO2 overnight.
# (§6) The next day media is removed and replaced with 30 μL/well of cell loading buffer (a vial of Calcium 5 is solubilized in 20 mL of assay buffer) and the cells incubated for 1 hr at 37° C. The serially diluted test compounds (10 μL/well) are added to the cell plate by the FLIPR Tetra and the addition is monitored for 5 mins by the instrument. The cell plate is then removed and incubated for additional 25 mins in a humidified incubator at […] prior to being placed back into the FLIPR Tetra. Finally 10 μL of orexin A in assay buffer +0.1% (w/v) bovine serum albumin is dispensed by the FLIPR Tetra at an EC75 concentration determined for each assay run. Fluorescence is measured at excitation and emission wavelengths of 485 nm and 525 nm respectively and data analyzed using GraphPad Prism for the EC75 value of orexin A and Aplus to determine an IC50 value for each test compound.
# hOX2R [4] = molecular target: T3, hOX2R; test: Intracellular calcium measurements using stable-replicating cells, Method B (CHO cells, FLIPR Tetra), OX2; settings: orexin A at EC75, read-out: pIC50 OX2 (converted)
# Procedure: as §1, §5, §6
# hOX1R [5] = molecular target: T2, hOX1R; test: Intracellular calcium measurements using division-arrested cells, OX1; settings: agonist orexin A at 2×EC50, * = single experiment, otherwise average of at least two, read-out: pIC50 OX1 (converted)
# Summary of the method: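 Division-arrested cells expressing human OX1 or OX2 were seeded for 16 h, then loaded with Calcium 5 dye plus probenecid for 1 h at 37 °C. Compounds in HEPES-buffered HBSS with 0.1% BSA, pH 7.4, top final concentration 10 μM, were added 10 min before the FlexStation calcium read.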
IC50 (orexin-1),IC50 (hOX1R [1]),IC50 (hOX2R [2]),IC50 (hOX1R [3]),IC50 (hOX2R [4]),IC50 (hOX1R [5]),Compound
> 10000 nM,–,–,–,–,–,"CC[C@@H](CNc1ccc2nccn2c1)N(C)C(=O)c1cc(Cl)ccc1-n1nccn1 [(S)-5-chloro-N-(1-(imidazo[1,2-a]pyridin-6-ylamino)butan-2-yl)-N-methyl-2-(2H-1,2,3-triazol-2-yl)benzamide]"
> 10000 nM,–,–,–,–,–,"CC[C@@H](COc1nc2ccccc2n1C)NC(=O)c1cc(C)ccc1-n1nccn1 [(S)-5-methyl-N-(1-((1-methyl-1H-benzo[d]imidazol-2-yl)oxy)butan-2-yl)-2-(2H-1,2,3-triazol-2-yl)benzamide]"
> 10000 nM,–,–,–,–,–,"CC[C@@H](CNc1ncc(C(F)(F)F)cn1)N(C)C(=O)c1nc(C(C)(C)O)ccc1-n1nccn1 [(S)-6-(2-hydroxypropan-2-yl)-N-methyl-3-(2H-1,2,3-triazol-2-yl)-N-(1-((5-(trifluoromethyl)pyrimidin-2-yl)amino)butan-2-yl)picolinamide]"
> 10000 nM,–,–,–,–,–,"CCOC(=O)c1ccc(NC[C@H](CC)N(C)C(=O)c2cc(Cl)ccc2-n2nccn2)nc1 [(S)-ethyl 6-((2-(5-chloro-N-methyl-2-(2H-1,2,3-triazol-2-yl)benzamido)butyl)amino) nicotinate]"
> 10000 nM,–,–,–,–,–,"CC[C@@H](COc1nc2ccccc2n1C)N(C)C(=O)c1cc(C)ccc1-n1nccn1 [(S)—N,5-dimethyl-N-(1-((1-methyl-1H-benzo[d]imidazol-2-yl)oxy)butan-2-yl)-2-(2H-1,2,3-triazol-2-yl)benzamide]"
> 10000 nM,–,–,–,–,–,CC[C@@H](CNc1ccc(Cl)cn1)NC(=O)c1cc(C)ccc1N1CCN(C)CC1 [(S)—N-(1-((5-chloropyridin-2-yl)amino)butan-2-yl)-5-methyl-2-(4-methylpiperazin-1-yl)benzamide]
–,10 nM,1000 nM,0.794 nM,794 nM,–,"CC[C@@H](CNc1nc2ccccc2o1)N(C)C(=O)c1cc(Cl)ccc1-n1nccn1 [Example 43, (S)—N-(1-(benzo[d]oxazol-2-ylamino)butan-2-yl)-5-chloro-N-methyl-2-(2H-1,2,3-triazol-2-yl)benzamide]"
–,31.6 nM,> 10000 nM,3.16 nM,> 10000 nM,20 nM,"CC[C@@H](CNc1ncc(C(F)(F)F)cn1)N(C)C(=O)c1nc(C)ccc1-n1nccn1 [Example 46, (S)—N,6-dimethyl-3-(2H-1,2,3-triazol-2-yl)-N-(1-((5-(trifluoromethyl)pyrimidin-2-yl)amino)butan-2-yl)picolinamide]"
–,3.98 nM,> 7940 nM,2.51 nM,> 3980 nM,31.6 nM,"CC[C@@H](CNc1cnc(C(F)(F)F)cn1)N(C)C(=O)c1nc(C)ccc1-n1nccn1 [Example 47, (S)—N,6-dimethyl-3-(2H-1,2,3-triazol-2-yl)-N-(1-((5-(trifluoromethyl)pyrazin-2-yl)amino)butan-2-yl)picolinamide]"
–,3.98 nM,1580 nM,2.51 nM,3160 nM,–,"CC[C@@H](CNc1ncc2ccccc2n1)N(C)C(=O)c1nc(C)ccc1-n1nccn1 [Example 61, (S)—N,6-dimethyl-N-(1-(quinazolin-2-ylamino)butan-2-yl)-3-(2H-1,2,3-triazol-2-yl)picolinamide]"
–,1.58 nM,1260 nM,1.58 nM,501 nM,–,"CC[C@@H](CNc1nc2ccccc2s1)N(C)C(=O)c1nc(C)ccc1-n1nccn1 [Example 63, (S)—N-(1-(benzo[d]thiazol-2-ylamino)butan-2-yl)-N,6-dimethyl-3-(2H-1,2,3-triazol-2-yl)picolinamide]"
–,6.31 nM,2000 nM,1.26 nM,2510 nM,–,"CC[C@@H](CNc1ccc2ccccc2n1)N(C)C(=O)c1nc(C)ccc1-n1nccn1 [Example 75, (S)—N,6-dimethyl-N-(1-(quinolin-2-ylamino)butan-2-yl)-3-(2H-1,2,3-triazol-2-yl)picolinamide]"
–,7.94 nM,1260 nM,0.794 nM,501 nM,–,"CC[C@@H](CNc1ccc2ccccc2n1)N(C)C(=O)c1cc(Cl)ccc1-n1nccn1 [Example 77, (S)-5-chloro-N-methyl-N-(1-(quinolin-2-ylamino)butan-2-yl)-2-(2H-1,2,3-triazol-2-yl)benzamide]"
–,100 nM,1580 nM,79.4 nM,2510 nM,–,"CC[C@@H](CNc1ncc(C(F)(F)F)cn1)N(C)C(=O)c1cccc2cccnc12 [Example 79, (S)—N-methyl-N-(1-((5-(trifluoromethyl)pyrimidin-2-yl)amino)butan-2-yl)quinoline-8-carboxamide]"
–,25.1 nM,200 nM,10 nM,316 nM,–,"CC[C@@H](CNc1ncc(C(F)(F)F)cn1)N(C)C(=O)c1cc(Cl)cc2cccnc12 [Example 80, (S)-6-chloro-N-methyl-N-(1-((5-(trifluoromethyl)pyrimidin-2-yl)amino)butan-2-yl)quinoline-8-carboxamide]"
–,39.8 nM,251 nM,5.01 nM,251 nM,–,"CC[C@@H](CNc1ncc(C(F)(F)F)cn1)N(C)C(=O)c1nc(N(C)C)cc2ccccc12 [Example 81, (S)-3-(dimethylamino)-N-methyl-N-(1-((5-(trifluoromethyl)pyrimidin-2-yl)amino)butan-2-yl)isoquinoline-1-carboxamide]"
–,50.1 nM,3160 nM,100 nM,–,–,"CC[C@@H](CNc1ncc(C(F)(F)F)cn1)N(C)C(=O)c1nccc2ccccc12 [Example 85, (S)—N-methyl-N-(1-((5-(trifluoromethyl)pyrimidin-2-yl)amino)butan-2-yl)isoquinoline-1-carboxamide]"
–,39.8 nM,> 10000 nM,10 nM,–,–,"Cc1ccc(-n2nccn2)c(C(=O)N(C)[C@H](CNc2ncc(C(F)(F)F)cn2)CC(F)(F)F)n1 [Example 88, (S)—N,6-dimethyl-3-(2H-1,2,3-triazol-2-yl)-N-(4,4,4-trifluoro-1-((5-(trifluoromethyl)pyrimidin-2-yl)amino)butan-2-yl)picolinamide]"
